The values below come from article PMC8111401 (Frontiers in Pharmacology, 2021).

Read-outs that look alike come from different tables or passages of the source.

Data set [1] in a line: Lisinopril excreted in 24 h urine, measured by LC-MS/MS. The data set is classed as in vivo, WAG/RijCmcr rats. Here is the method:
Urine was collected in a Nalgene rat metabolic cage. A rat was placed in the metabolic cage with access to food and water for 24 h. After 24 h urine volume was recorded, and an aliquot was frozen and stored at −80°C for LC-MS analyses.
Plasma was measured 1–4 times in each animal, at 0, 0.5, 1, 1.5, 2, 2.5, 3, 4, 5, 6, 8, 24 or 48 h after oral gavage, and 5 min, 1.5 and 24 h after intravenous injection.
Aliquots (0.1 ml) of rat plasma or urine were extracted with ∼3 volumes of cold acidified methanol spiked with enalaprilat as an internal standard (0.3 ml of methanol, 20 µL of 0.1 M HCl and 3 µL of 0.1 mM enalaprilat), mixed well and allowed to stand for 5 min before centrifugation at 14,000 rpm for 5 min at 4°C. The supernatant was passed through a Phree phospholipid removal plate (Phenomenex) and the eluate dried completely under a flux of air and reconstituted with 120 µL of LC-MS mobile phase (5% acetonitrile, 95% water, 0.1% formic acid), spiked with 1 µM of lisinopril-d5 used as a second internal standard. […] Samples were injected into C18 reversed phase column (Waters Cortecs UPLC C18 2.1 mm × 50 mm, 1.6 µm) thermostated at 40°C and equilibrated with 0.1% formic acid in water:acetonitrile (95:5). Compounds were eluted by increasing the concentration of acetonitrile in the mobile phase from 5 to 40% over 2.5 min at the flow rate of 0.5 ml/min.

For data set [2] the following is noted: control (nonirradiated) rats; base parameter estimate, two-compartment model.
Description: (§1) WAG/RijCmcr female rats were irradiated without the use of anesthetics at 11–12 weeks of age weighing ∼155 g. All irradiations were done between 8–11 am. For leg-out PBI, non-anesthetized rats were immobilized in a plastic jig and irradiated using a XRAD-320 orthovoltage x-ray system (Precision X-Ray, North Branford, Connecticut). […] During the irradiation, each rat was confined in a chamber which allows irradiation of two rats simultaneously. One hind limb of each rat was carefully externalized from the chamber and shielded with a 0.25-inch lead block. The dose to this leg was 2 Gy. The dual-chambered jig was placed on a plane perpendicular to the beam direction, with distance from source to the midline of rats set at 61 cm. […] The irradiation field at midline was large enough to cover both chambers with adequate (at least 2 cm) margins. Supportive care was provided to rats receiving 13 Gy. Supportive care consisted of delivery of the antibiotic Enrofloxacin (10 mg/kg/day) from days 1–14 in the drinking water, and hydration by daily subcutaneous injection of saline (40 ml/kg/day) from days 3–7, post-irradiation.
(§2) Aliquots (0.1 ml) of rat plasma or urine were extracted with ∼3 volumes of cold acidified methanol spiked with enalaprilat as an internal standard (0.3 ml of methanol, 20 µL of 0.1 M HCl and 3 µL of 0.1 mM enalaprilat), mixed well and allowed to stand for 5 min before centrifugation at 14,000 rpm for 5 min at 4°C. […] Samples were injected into C18 reversed phase column (Waters Cortecs UPLC C18 2.1 mm × 50 mm, 1.6 µm) thermostated at 40°C and equilibrated with 0.1% formic acid in water:acetonitrile (95:5).
(§3) Pharmacokinetic (PK) modeling was performed on the data to measure distribution of the drug in different tissues (compartments). The two compartments fitted with observed data were the central compartment (plasma) and the peripheral compartment (internal tissues such as lungs, liver, kidneys, etc.). Administration by gavage was modeled using the gut as a depot to include bioavailability (F) and absorption (k a) from the gut (Figure 1). […] Clearance out of the system was modeled by Cl, the renal clearance rate via urine (Figure 1). The model was fitted using the open-source R package Nonlinear Mixed-Effects Model Development and Simulation (nlmixr) along with related R packages.
(§4) An additive error with compartment-specific variance was assumed for the plasma, peripheral, and urine compartments. Multiple measurements from the same animal were linked via a log-normally distributed multiplicative random effect on the compartment volumes V 2 and V 3.
(§5) The observed measurements are the concentration in plasma, Cplasma and the (cumulative) amount in the urine, Yurine .
(§6) The model was fitted to the plasma and urine data, the accumulation in the peripheral compartment was inferred from the model.
Details of data set [3]: method as in Beermann 1988. As to conditions: humans; ref Beermann 1988; cited from earlier work.
The nature of data set [4]: in vivo. As to conditions: female, WAG/RijCmcr, rat, plasma, urine.
Description: as §1, §2, §3, §4, §5, §6
Data set [5] can be described thus: in vivo. The note with it: female, WAG/RijCmcr, rat, plasma, po.
The test system of another data set is radiation pneumonitis. Also on record: method as in Gao et al., 2013. As to conditions: delivered as late as 35 days after radiation; ref Gao et al., 2013; cited from earlier work.

By half-life is commonly meant the time needed for the level to fall by half in the phase considered. Usually bioavailability stands for the share of a dose that reaches the circulation, judged against a reference dose that is usually intravenous. Lower therefore signals little systemic uptake. As a reminder, the Tmax is the time at which the peak concentration occurs. For `NCCCC[C@H](N[C@@H](CCc1ccccc1)C(=O)O)C(=O)N1CCC[C@H]1C(=O)O` [lisinopril], the “Measured lisinopril excreted in urine per 300 µg administered, geometric mean” value in data set [1] (IV, no radiation) came out at 0.46 µmol; in data set [1] (IV, radiation) it was 0.37 µmol; in data set [1] (gavage, no radiation), 0.072 µmol; in data set [1] (gavage, radiation), 0.11 µmol. Also, the Central volume in data set [2] is on record as 0.008 L. Besides, the “Peripheral volume (lung)” value in data set [2] is 0.513 L. For the same compound, the Inter-individual variation runs as follows: (irradiated rats, 90 min after IV injection) 1.8 fold; (irradiated rats, 90 min after oral gavage (data not shown)) 2.7 fold; (non-irradiated rats, 90 min after oral gavage (data not shown)) 1.6 fold; (nonirradiated rats injected with lisinopril (result not shown)) 3-4 fold. The “Half-life of prolonged terminal phase” value in data set [3] was 46.7 h. The “Time of peak serum levels” value in data set [3] was 6 to 8 h. The CL renal in “in vivo [4]” was 0.15 mL/min. The half-life in “in vivo [4]” (Model-based circulating half-life, irradiated rats) is 2.5 h; in “in vivo [4]” (Model-based circulating half-life, non-irradiated rats), 2.8 h; in “in vivo [4]” (Model-based estimate of terminal half-life, irradiated rats) it was 83 h; in the data set “in vivo [4]” (Model-based estimate of terminal half-life, nonirradiated rats), 65 h. For the same compound, the bioavailability in “in vivo [4]” (oral) is 25.4%; in “in vivo [4]” (po) it was 19.2%. For the same compound, the Tmax in “in vivo [5]” was 2 to 3 h.

Consider `CCOC(=O)[C@H](CCc1ccccc1)N[C@@H](C)C(=O)N1CCC[C@H]1C(=O)O` [enalapril], for which, in the data set on radiation pneumonitis, the “Efficacy to mitigate radiation pneumonitis” value is listed as “had efficacy to mitigate radiation pneumonitis”.
